Patent EP0067666A1, “Salts of antimicrobial naphthyridine and quinoline compounds and their production” (priority 1981, dated 1982)
Marks after values point to notes of the source that are not given here.

Key:
[1] = Solubility screening procedure (concentration and pH of filtrate); type: physicochemical; details: for Conc. of CPD A: compound A + equimolar acid; for Conc. of CPD A / Conc. of CPD B: amino acid or base in deionized water, room temperature, filtrate, UV assay; for pH of Solution: pH of the filtrate; for Conc. of CPD B: compound B + equimolar acid
Protocol: (§1) The amount of Compound A or Compound B calculated for selected concentrations was weighed into volumetric flasks. Equimolar quantities of combining acid, amino acid, or base were added either as solutions or in dry form. Deionized water was added to bring the volume to that desired for the preselected concentrations.. All flasks were sonicated for 15 minutes, allowed to stand at room temperature for 30 minutes, then filtered through a fine frit sintered glass funnel. After the pH of the filtrate was taken, suitable dilutions were made into 0.1N HCl for ultraviolet spectrophotometric assay of concentration. Ten fold dilutions of the original filtrates were made into standard I.V. solutions.

[2] = 10x dilution of soluble forms with standard IV solutions (pH, precipitate); type: physicochemical; details: for Solution 1 ppt 24 hr / Solution 3 ppt 24 hr / Solution 2 ppt 24 hr / Solution 4 ppt 24 hr: precipitate at 24 hr; for Concen. of Cpd A: undiluted solution used for the 10x dilutions
Protocol: as §1

[3] = Cpd A salt solution diluted 10x with 0.9% NaCl
[4] = Cpd A salt solution diluted 10x with 5% Dextrose
[5] = Cpd A salt solution diluted 10x with 5% Dextrose + 0.9% NaCl
[6] = Cpd A salt solution diluted 10x with Lactated Ringer's Solution
[7] = concentrated Cpd B solution (155-221 mg/ml) diluted 10x with 0.9% NaCl

CCn1cc(C(=O)O)c(=O)c2cc(F)c(N3CCNCC3)cc21 [A Acetic]
Conc. of CPD A [1]: 235000 µg/mL | pH of Solution ([1]; CPD A solutions): 5.3 | Solution 1 pH dil [2, 3]: 5.4 | Solution 1 ppt 24 hr [2, 3]: no | Solution 2 pH dil [2, 4]: 5.0 | Solution 3 pH dil [2, 5]: 5.3 | Solution 3 ppt 24 hr [2, 5]: no | Solution 2 ppt 24 hr [2, 4]: no | Solution 4 pH dil [2, 6]: 5.3 | Solution 4 ppt 24 hr [2, 6]: no | pH of Solut. ([2]; undiluted Cpd A solution): 5.3 | Concen. of Cpd A [2]: 235000 µg/mL

CCn1cc(C(=O)O)c(=O)c2cc(F)c(N3CCNCC3)cc21 [A Choline]
Conc. of CPD A [1]: 53500 µg/mL | pH of Solution ([1]; CPD A solutions): 10.34

CCn1cc(C(=O)O)c(=O)c2cc(F)c(N3CCNCC3)cc21 [A Citric]
Conc. of CPD A [1]: 1500 µg/mL | pH of Solution ([1]; CPD A solutions): 3.32

CCn1cc(C(=O)O)c(=O)c2cc(F)c(N3CCNCC3)cc21 [A D,L-Alanine]
Conc. of CPD A [1]: 900 µg/mL | pH of Solution ([1]; CPD A solutions): 6.44

CCn1cc(C(=O)O)c(=O)c2cc(F)c(N3CCNCC3)cc21 [A Diethanolamine]
Conc. of CPD A [1]: 7500 µg/mL | pH of Solution ([1]; CPD A solutions): 9.68

CCn1cc(C(=O)O)c(=O)c2cc(F)c(N3CCNCC3)cc21 [A Galacturonic]
Conc. of CPD A [1]: 166000 µg/mL | pH of Solution ([1]; CPD A solutions): 5.44

CCn1cc(C(=O)O)c(=O)c2cc(F)c(N3CCNCC3)cc21 [A Gluconic]
Conc. of CPD A [1]: 182000 µg/mL | pH of Solution ([1]; CPD A solutions): 4.3

CCn1cc(C(=O)O)c(=O)c2cc(F)c(N3CCNCC3)cc21 [A Hydrochloric]
Conc. of CPD A [1]: 201000 µg/mL | pH of Solution ([1]; CPD A solutions): 1.52^a | Solution 1 pH dil [2, 3]: 2.7 | Solution 1 ppt 24 hr [2, 3]: no | Solution 2 pH dil [2, 4]: 2.8 | Solution 3 pH dil [2, 5]: 2.7 | Solution 3 ppt 24 hr [2, 5]: no | Solution 2 ppt 24 hr [2, 4]: no | Solution 4 pH dil [2, 6]: 4.6 | Solution 4 ppt 24 hr [2, 6]: no | pH of Solut. ([2]; undiluted Cpd A solution): 1.52 | Concen. of Cpd A [2]: 201000 µg/mL

CCn1cc(C(=O)O)c(=O)c2cc(F)c(N3CCNCC3)cc21 [A Isethionic]
Conc. of CPD A [1]: 175000 µg/mL | pH of Solution ([1]; CPD A solutions): 1.35 | Solution 1 pH dil [2, 3]: 2.18 | Solution 1 ppt 24 hr [2, 3]: no | Solution 2 pH dil [2, 4]: 2.27 | Solution 3 pH dil [2, 5]: 2.08 | Solution 3 ppt 24 hr [2, 5]: no | Solution 2 ppt 24 hr [2, 4]: no | Solution 4 pH dil [2, 6]: 3.70 | Solution 4 ppt 24 hr [2, 6]: no | pH of Solut. ([2]; undiluted Cpd A solution): 1.35 | Concen. of Cpd A [2]: 175000 µg/mL

CCn1cc(C(=O)O)c(=O)c2cc(F)c(N3CCNCC3)cc21 [A L-Arginine]
Conc. of CPD A [1]: 11100 µg/mL | pH of Solution ([1]; CPD A solutions): 9.8

CCn1cc(C(=O)O)c(=O)c2cc(F)c(N3CCNCC3)cc21 [A L-Cysteic]
Conc. of CPD A [1]: 166000 µg/mL | pH of Solution ([1]; CPD A solutions): 2.92 | Solution 1 pH dil [2, 3]: 3.17 | Solution 1 ppt 24 hr [2, 3]: no | Solution 2 pH dil [2, 4]: 2.82 | Solution 3 pH dil [2, 5]: 2.68 | Solution 3 ppt 24 hr [2, 5]: no | Solution 2 ppt 24 hr [2, 4]: no | Solution 4 pH dil [2, 6]: 3.70 | Solution 4 ppt 24 hr [2, 6]: slight | pH of Solut. ([2]; undiluted Cpd A solution): 2.92 | Concen. of Cpd A [2]: 166000 µg/mL

CCn1cc(C(=O)O)c(=O)c2cc(F)c(N3CCNCC3)cc21 [A L-Histidine]
Conc. of CPD A [1]: 700 µg/mL | pH of Solution ([1]; CPD A solutions): 7.4

CCn1cc(C(=O)O)c(=O)c2cc(F)c(N3CCNCC3)cc21 [A L-Leucine]
Conc. of CPD A [1]: 900 µg/mL | pH of Solution ([1]; CPD A solutions): 6.2

CCn1cc(C(=O)O)c(=O)c2cc(F)c(N3CCNCC3)cc21 [A L-Lysine]
Conc. of CPD A [1]: 4200 µg/mL | pH of Solution ([1]; CPD A solutions): 9.5

CCn1cc(C(=O)O)c(=O)c2cc(F)c(N3CCNCC3)cc21 [A L-Proline]
Conc. of CPD A [1]: 900 µg/mL | pH of Solution ([1]; CPD A solutions): 6.28

CCn1cc(C(=O)O)c(=O)c2cc(F)c(N3CCNCC3)cc21 [A Lactobionic]
Conc. of CPD A [1]: 46500 µg/mL | pH of Solution ([1]; CPD A solutions): 4.65

CCn1cc(C(=O)O)c(=O)c2cc(F)c(N3CCNCC3)cc21 [A Maleic]
Conc. of CPD A [1]: 45100 µg/mL | pH of Solution ([1]; CPD A solutions): 2.79

CCn1cc(C(=O)O)c(=O)c2cc(F)c(N3CCNCC3)cc21 [A Methane Sulphonic]
Conc. of CPD A [1]: 175000 µg/mL | pH of Solution ([1]; CPD A solutions): 1.33 | Solution 1 pH dil [2, 3]: 5.4 | Solution 1 ppt 24 hr [2, 3]: no | Solution 2 pH dil [2, 4]: 2.7 | Solution 3 pH dil [2, 5]: 2.5 | Solution 3 ppt 24 hr [2, 5]: no | Solution 2 ppt 24 hr [2, 4]: no | Solution 4 pH dil [2, 6]: 4.5 | Solution 4 ppt 24 hr [2, 6]: no | pH of Solut. ([2]; undiluted Cpd A solution): 1.5 | Concen. of Cpd A [2]: 173000 µg/mL

CCn1cc(C(=O)O)c(=O)c2cc(F)c(N3CCNCC3)cc21 [A Oxalic]
Conc. of CPD A [1]: 19800 µg/mL | pH of Solution ([1]; CPD A solutions): 2.14

CCn1cc(C(=O)O)c(=O)c2cc(F)c(N3CCNCC3)cc21 [A Sodium Hydroxide]
Conc. of CPD A [1]: 131000 µg/mL | pH of Solution ([1]; CPD A solutions): 10.0

CCn1cc(C(=O)O)c(=O)c2cc(F)c(N3CCNCC3)cc21 [A Succinic]
Conc. of CPD A [1]: 128000 µg/mL | pH of Solution ([1]; CPD A solutions): 4.25

CCn1cc(C(=O)O)c(=O)c2cc(F)c(N3CCNCC3)cc21 [A Tartaric]
Conc. of CPD A [1]: 3500 µg/mL | pH of Solution ([1]; CPD A solutions): 3.02

CCn1cc(C(=O)O)c(=O)c2cc(F)c(N3CCNCC3)nc21 [B Acetic]
Conc. of CPD B [1]: 195000 µg/mL | pH of Solution ([1]; CPD B solutions): 4.97^c | Solution 2 pH dil ([2]; concentrated Cpd B solution (154-221 mg/ml) diluted 10x with 5% Dextrose): 5.6 | Solution 3 pH dil ([2]; concentrated Cpd B solution (154-221 mg/ml) diluted 10x with 5% Dextrose + 0.9% NaCl): 5.4 | Solution 4 pH dil ([2]; concentrated Cpd B solution (154-221 mg/ml) diluted 10x with Lactated Ringer's Solution): 5.3 | Solution 1 pH dil [2, 7]: 5.2 | Solution 1 ppt 4 hr ([2]; concentrated Cpd B solution (155-221 mg/ml) diluted 10x with 0.9% NaCl, precipitate at 4 hr): yes | Solution 1 ppt 24 hr [2, 7]: yes | Solution 3 ppt 4 hr ([2]; concentrated Cpd B solution diluted 10x with 5% Dextrose + 0.9% NaCl, precipitate at 4 hr): yes | Solution 3 ppt 24 hr ([2]; concentrated Cpd B solution diluted 10x with 5% Dextrose + 0.9% NaCl): yes | Solution 2 ppt 4 hr ([2]; concentrated Cpd B solution diluted 10x with 5% Dextrose, precipitate at 4 hr): slight | Solution 2 ppt 24 hr ([2]; concentrated Cpd B solution diluted 10x with 5% Dextrose): slight | Solution 4 ppt 4 hr ([2]; concentrated Cpd B solution diluted 10x with Lactated Ringer's Solution, precipitate at 4 hr): slight | Solution 4 ppt 24 hr ([2]; concentrated Cpd B solution diluted 10x with Lactated Ringer's Solution): yes | pH of Solut. ([2]; undiluted concentrated Cpd B solution used for the Solution 1 dilution): 4.97 | Concen. of Cpd B ([2]; undiluted concentrated solution (at least 155 mg/ml) used for the Solution 1 dilution (for most salts for all four solutions)): 195000 µg/mL

CCn1cc(C(=O)O)c(=O)c2cc(F)c(N3CCNCC3)nc21 [B Choline]
Conc. of CPD B [1]: 38200 µg/mL | pH of Solution ([1]; CPD B solutions): 9.8

CCn1cc(C(=O)O)c(=O)c2cc(F)c(N3CCNCC3)nc21 [B Citric]
Conc. of CPD B [1]: 1300 µg/mL | pH of Solution ([1]; CPD B solutions): 3.14

CCn1cc(C(=O)O)c(=O)c2cc(F)c(N3CCNCC3)nc21 [B Diethanolamine]
Conc. of CPD B [1]: 4300 µg/mL | pH of Solution ([1]; CPD B solutions): 9.7

CCn1cc(C(=O)O)c(=O)c2cc(F)c(N3CCNCC3)nc21 [B Gluconic]
Conc. of CPD B [1]: 168000 µg/mL | pH of Solution ([1]; CPD B solutions): 4.6

CCn1cc(C(=O)O)c(=O)c2cc(F)c(N3CCNCC3)nc21 [B Glycine]
Conc. of CPD B [1]: 1200 µg/mL | pH of Solution ([1]; CPD B solutions): 6.87

CCn1cc(C(=O)O)c(=O)c2cc(F)c(N3CCNCC3)nc21 [B L-Arginine]
Conc. of CPD B [1]: 6700 µg/mL | pH of Solution ([1]; CPD B solutions): 9.7

CCn1cc(C(=O)O)c(=O)c2cc(F)c(N3CCNCC3)nc21 [B L-Histidine]
Conc. of CPD B [1]: 1100 µg/mL | pH of Solution ([1]; CPD B solutions): 7.53

CCn1cc(C(=O)O)c(=O)c2cc(F)c(N3CCNCC3)nc21 [B L-Lysine]
Conc. of CPD B [1]: 4300 µg/mL | pH of Solution ([1]; CPD B solutions): 9.4

CCn1cc(C(=O)O)c(=O)c2cc(F)c(N3CCNCC3)nc21 [B L-Proline]
Conc. of CPD B [1]: 1100 µg/mL | pH of Solution ([1]; CPD B solutions): 6.92

CCn1cc(C(=O)O)c(=O)c2cc(F)c(N3CCNCC3)nc21 [B Lactobionic]
Conc. of CPD B [1]: 99000 µg/mL | pH of Solution ([1]; CPD B solutions): 3.6 ^b

CCn1cc(C(=O)O)c(=O)c2cc(F)c(N3CCNCC3)nc21 [B Maleic]
Conc. of CPD B [1]: 7750 µg/mL | pH of Solution ([1]; CPD B solutions): 2.60

CCn1cc(C(=O)O)c(=O)c2cc(F)c(N3CCNCC3)nc21 [B Oxalic]
Conc. of CPD B [1]: 2800 µg/mL | pH of Solution ([1]; CPD B solutions): 1.76^b

CCn1cc(C(=O)O)c(=O)c2cc(F)c(N3CCNCC3)nc21 [B Succinic]
Conc. of CPD B [1]: 75000 µg/mL | pH of Solution ([1]; CPD B solutions): 4.45^b

CCn1cc(C(=O)O)c(=O)c2cc(F)c(N3CCNCC3)nc21 [B Tartaric]
Conc. of CPD B [1]: 7700 µg/mL | pH of Solution ([1]; CPD B solutions): 3.46
